# From publication PMC8274846, “Biogenic nanoporous silicon carrier improves the efficacy of buparvaquone against resistant visceral leishmaniasis” (PLoS Neglected Tropical Diseases, 2021)
# How the values were obtained:
# liver parasite burden = test system: liver parasite burden; parameters: method as in PMID 14695832, PMID 17715126; settings: BALB/c mice; cited from earlier work
# L.donovani = test system: L.donovani; parameters: method as in PMID 25936561; settings: L.donovani infection; cited from earlier work
# [1] = test system: axenic L.donovani amastigotes, wild-type AG83; test: Antileishmanial activity against axenic amastigotes, wild-type AG83; assay type: cell-based; settings: axenic amastigotes, mean ± σ, n = 4; for IC50: Leishmania donovani
# Protocol: (§1) L. donovani AG83 (MHOM/IN/83/AG83) and GE1 (MHOM/IN/80/GE1F8R) promastigotes were routinely grown in medium 199 supplemented with 10% heat-inactivated fetal bovine serum, 2 mM L-glutamine, 20 mM HEPES, 100 U/mL penicillin, and 100 μg/mL streptomycin at 25°C. L. donovani amastigote forms were grown and maintained as described previously. Axenic amastigote forms were derived from promastigote forms by culturing them in MMA/20 (medium for axenic amastigote) at pH 5.5 [22]. Axenically grown amastigotes were maintained by sub-culture of 10^5 parasites/ml repeated every fifth day under experimental conditions of 37°C temperature and 5% CO2 environment.
# (§2) The antileishmanial activity of the drug specimens (BPQ+NP, BPQ, SSG, AmB, PMM, and MF) against the axenic amastigotes were evaluated based on the IC50 value, which is the concentration of the specimen required to kill 50% of the parasites. The parasites were first seeded into 96-well plates at a density of 1x10^5 amastigotes/well in 200 μL medium. Then, 10 μL of the drug candidates at various concentrations were added and the final volume was adjusted to […] medium. The number of amastigotes in the wells treated with each specimen were compared to those in the untreated control wells.
# (§3) Microscopic examinations were performed in duplicates with various concentrations of pure drugs or buparvaquone-loaded nanoparticles and also for control wells. The amastigotes cells were counted for all cases using a hemocytometer. The mean of the control wells was considered as 100% survival. The counts in the treated wells at various concentrations were converted into percentages. Giemsa-stained slides of the macrophages infected with amastigotes were observed under a light microscope. Then the numbers of amastigotes and infected macrophages per 100 cells were counted for each slide. The percentage (%) of inhibition was calculated by using the equation %ofinhibition=C−T/C×100, (2) where C is the number of amastigotes/infected macrophages per 100 cells in the control well and T is the number of amastigotes/infected macrophages per 100 cells in the drug-treated well.
# (§4) Origin version 6.1 software was used to calculate IC50 and CC50 values by plotting a graph of the percentage of inhibition at various concentrations of all the observations.
# [2] = test system: intracellular L.donovani amastigotes, AG83-R, PMM, in macrophages; test: microbe, parasite or virus in culture; assay type: cell-based; settings: for Selectivity index (SI), AG83-R, PMM: CC50/IC50, intracellular; for IC50: Leishmania donovani, Macrophage, read-out: Cellular IC50, AG83-R, PMM
# Protocol: (§5) SSG and PMM resistant L. donovani amastigotes were generated by using the methods described previously. […] The cultures were stabilized for three subcultures. Then, the drug concentration was increased until the cell population decreased approximately to 20% for each batch. Finally, when 90% cell population of the initial count was reduced, the phenotype generated was plated on medium 199 agar plates containing the same drug concentration, and a single colony was picked for culture in medium 199 liquid media at the same drug concentration. The cultured promastigotes are converted into amastigotes as described above. Drug pressure was withdrawn, and stability was checked at one, two, and four months. SSG and PMM resistant phenotype clones were labeled as AG83-R,SSG and AG83-R, PMM, respectively.
# (§6) The intracellular antileishmanial activity was evaluated based on the reduction in the amastigote numbers in the infected macrophages after the treatment. The method was adapted from our previous work. Briefly, 4x10^6 amastigotes in 500 μL of RPMI-1640 suspension were added to each well containing macrophages with the macrophage: parasite ratio of 1:10. The plates were incubated for 4 h at 37°C in 5% CO2. After the parasite internalization period, cells were washed at least twice with fresh media to remove non-phagocytosed parasites. Then, the drug specimen suspended in 1 mL RPMI-1640 was added, and the samples were incubated for 72 h at 37°C in 5% CO2. The medium was aspirated, the coverslips were removed, and then fixed with methanol and air-dried. After staining with Giemsa, 100 cells on the glass discs were counted. Three independent experiments in quadruplicate for each concentration were performed.
# as §3, §4
# [3] = test system: intracellular L.donovani amastigotes, AG83-R, SSG, in macrophages; test: microbe, parasite or virus in culture; assay type: cell-based; settings: for Selectivity index (SI), AG83-R, SSG: CC50/IC50, intracellular; for IC50: Leishmania donovani, Macrophage, read-out: Cellular IC50, AG83-R, SSG
# Protocol: as §5, §6, §3, §4
# [4] = test system: axenic L.donovani amastigotes, GE1 (isolated strain resistant to SSG); test: Antileishmanial activity against axenic amastigotes, GE1; assay type: cell-based; settings: for Resistance index (RI), GE1: IC50 against drug resistant strain / IC50 against wild-type strain (AG83), axenic; for IC50: Leishmania donovani
# Protocol: as §1, §2, §3, §4
# [5] = test system: intracellular L.donovani amastigotes, wild-type AG83, in macrophages; test: Antileishmanial activity against intracellular amastigotes, wild-type AG83; assay type: cell-based; settings: for Selectivity index (SI), AG83: CC50/IC50, intracellular; for IC50: Leishmania donovani, Macrophage, mean ± σ, n = 4, read-out: Cellular IC50, Wild-type AG83
# Protocol: as §6, §3, §4
# [6] = test system: intracellular L.donovani amastigotes, GE1, in macrophages; test: Antileishmanial activity against intracellular amastigotes, GE1; assay type: cell-based; settings: for Selectivity index (SI), GE1: CC50/IC50, intracellular; for IC50: Leishmania donovani, Macrophage, mean ± σ, n = 4, read-out: Cellular IC50, GE1
# Protocol: as §6, §3, §4
# [7] = test system: axenic L.donovani amastigotes, AG83-R, SSG (SSG resistant strain generated from AG83); test: microbe, parasite or virus in culture; assay type: cell-based; settings: for Resistance index (RI), AG83-R, SSG: IC50 against drug resistant strain / IC50 against wild-type strain (AG83), axenic; for IC50: Leishmania donovani, read-out: Axenic IC50, AG83-R, SSG
# Protocol: as §1, §5, §2, §3, §4
# [8] = test system: axenic L.donovani amastigotes, AG83-R, PMM (PMM resistant strain generated from AG83); test: microbe, parasite or virus in culture; assay type: cell-based; settings: for Resistance index (RI), AG83-R, PMM: IC50 against drug resistant strain / IC50 against wild-type strain (AG83), axenic; for IC50: Leishmania donovani, read-out: Axenic IC50, AG83-R, PMM
# Protocol: as §1, §5, §2, §3, §4
# [9] = test system: wild-type AG83 promastigotes; test: IC50 against wild-type AG83 promastigotes (used for generation of resistant strains); assay type: cell-based, L. donovani
# Protocol: as §5
# [10] = test system: resident peritoneal macrophages; test: Cytotoxicity studies (CC50) on peritoneal macrophages; assay type: cell-based, BALB/c mice; settings: 48 h exposure, values for SSG given in μg/ml
# Protocol: (§7) Resident peritoneal macrophages were isolated from BALB/c mice. For the isolation, 1.5 mL of sterile thioglycolate medium was injected into the peritoneal cavity to induce non-infectious inflammation. Animals were sacrificed after 5 days, and peritoneal exudates were harvested by intraperitoneal lavage. Cold RPMI (6 mL) was injected into the peritoneal cavity. After 10 min, the injected fluid was withdrawn by the same syringe. From each animal, approximately 3-4 mL of medium was recovered. After centrifugation at 200 g for 15 min, macrophages were collected. […] The cytotoxicity of the drug specimen was evaluated by the CC50 value, which is the concentration required to kill 50% of the host cell population. Macrophages were first isolated from peritoneal lavage as described above. The cells were seeded into 96-well plates at 1x10^6 cells/mL in 200 μL of RPMI-1640 supplemented with 10% FCS, 20 mM L-glutamine, 16 mM NaHCO3, penicillin (50 U/mL) and streptomycin (50 μg/ mL) at 37°C in 5% CO2 for 4 h for adherence. To remove the non-adherent cells, each plate was washed two times with phosphate buffer saline (pH 7.2). […] Microscopic examinations were performed in duplicates with various concentrations of pure drugs or buparvaquone-loaded nanoparticles and also for control wells. The amastigotes cells were counted for all cases using a hemocytometer. The mean of the control wells was considered as 100% survival. The counts in the treated wells at various concentrations were converted into percentages. Giemsa-stained slides of the macrophages infected with amastigotes were observed under a light microscope. Then the numbers of amastigotes and infected macrophages per 100 cells were counted for each slide. The percentage (%) of inhibition was calculated by using the equation %[…]×100, (2) where C is the number of amastigotes/infected macrophages per 100 cells in the control well and T is the number of amastigotes/infected macrophages per 100 cells in the drug-treated well.
# [11] = as above; assay type: cell-based, BALB/c mice; settings: BALB/c, mouse, resident peritoneal macrophages, 48 h exposure, mean ± σ, n = 3
# Protocol: as §7
# [12] = intracellular amastigotes, 72 h, values for SSG given in μg/ml
# [13] = axenic amastigotes, values for SSG given in μg/ml, mean ± σ, n = 4
# [14] = axenic amastigotes, mean ± σ, n = 4
# [15] = intracellular amastigotes, 72 h
Structure (SMILES),"Selectivity index (SI), AG83-R, PMM [2]","Selectivity index (SI), AG83-R, SSG [3]","Resistance index (RI), GE1 [4]","Selectivity index (SI), AG83 [5]","Selectivity index (SI), GE1 [6]","Resistance index (RI), AG83-R, SSG [7]","Resistance index (RI), AG83-R, PMM [8]",IC50 [1] [nM],IC50 ([3]; 72 h) [nM],"IC50 [4, 14] [nM]","IC50 [5, 15] [nM]","IC50 [6, 15] [nM]",IC50 [7] [nM],CC50 at 48 h [11] [µM],IC50 ([2]; 72 h) [µM],IC50 [8] [µM],other results
CC(C)(C)C1CCC(CC2=C(OP(=O)(O)O)C(=O)c3ccccc3C2=O)CC1 (stereo not drawn) [buparvaquone-3-phosphate],–,–,–,–,–,–,–,–,–,–,–,–,–,–,–,–,Reduction in the liver parasite burden (liver parasite burden): 34%
C[C@@H]1CC[C@H]2[C@@H](C)C(=O)O[C@@H]3O[C@@]4(C)CC[C@@H]1[C@]32OO4 [artemisinin],–,–,–,–,–,–,–,–,–,–,–,–,–,–,–,–,Reduction of parasite burdens (liver and spleen) (L.donovani): ~ 50%
"O.O.O.O.O.O.O.O.O.O=C([O-])[C@@H]1[O][Sb](=[O])([O][Sb]2(=[O])[O][C@H]([C@H](O)CO)[C@H](O)[C@H](C(=O)[O-])[O]2)[O][C@H]([C@H](O)CO)[C@@H]1O.[Na+].[Na+].[Na+] (stereo partly drawn) [SSG, sodium stibogluconate]",2 ± 1,1 ± 1,4 ± 1,15 ± 4,4 ± 2,38 ± 4,32 ± 3,–,–,–,–,–,–,–,–,–,"Axenic IC50, Wild-type AG83 ([1]; values for SSG given in μg/ml): 3.5 ± 0.7 µg/mL; Cellular IC50, AG83-R, PMM [2, 12]: 20 ± 2 µg/mL; Cellular IC50, AG83-R, SSG [3, 12]: 22 ± 2 µg/mL; Axenic IC50, GE1 [4, 13]: 14 ± 2 µg/mL; Cellular IC50, Wild-type AG83 [5, 12]: 1.8 ± 0.2 µg/mL; Cellular IC50, GE1 [6, 12]: 7.5 ± 0.3 µg/mL; Axenic IC50, AG83-R, SSG [7, 13]: 133 ± 15 µg/mL; Axenic IC50, AG83-R, PMM [8, 13]: 113 ± 15 µg/mL; IC50 against the parasite ([9]; medium 199): 3.6 µg/mL; CC50 [10]: 27 ± 2 µg/mL"
"CCCCCCCCCCCCCCCCOP(=O)([O-])OCC[N+](C)(C)C [MF, miltefosine]",70 ± 10,60 ± 5,1.1 ± 0.3,100 ± 10,80 ± 10,1.3 ± 0.2,1.1 ± 0.2,500 ± 100,700 ± 100,500 ± 100,400 ± 100,500 ± 100,600 ± 100,36 ± 4,–,–,–
"C[C@@H]1[C@H](O)[C@@H](C)/C=C/C=C/C=C/C=C/C=C/C=C/C=C/[C@H](O[C@@H]2O[C@H](C)[C@@H](O)[C@H](N)[C@@H]2O)C[C@@H]2O[C@](O)(C[C@@H](O)C[C@@H](O)[C@H](O)CC[C@@H](O)C[C@@H](O)CC(=O)O[C@H]1C)C[C@H](O)[C@H]2C(=O)O [AmB, amphotericin B]",70 ± 10,70 ± 10,1.1 ± 0.2,80 ± 10,90 ± 10,1.1 ± 0.1,1.2 ± 0.2,200 ± 100,200 ± 100,300 ± 100,200 ± 100,200 ± 100,300 ± 100,15 ± 2,0.3 ± 0.1,0.3 ± 0.1,–
"NC[C@@H]1O[C@H](O[C@H]2[C@@H](O)[C@H](O[C@@H]3[C@@H](O)[C@H](N)C[C@H](N)[C@H]3O[C@H]3O[C@H](CO)[C@@H](O)[C@H](O)[C@H]3N)O[C@@H]2CO)[C@H](N)[C@@H](O)[C@@H]1O [PMM, paromomycin]",2 ± 1,2 ± 1,2.1 ± 0.3,30 ± 5,13 ± 2,32 ± 3,27 ± 2,12000 ± 1000,140000 ± 10000,25000 ± 2000,9000 ± 2000,20000 ± 3000,384000 ± 23000,260 ± 20,120 ± 10,327 ± 12,"IC50 ([9]; Leishmania donovani, medium 199, read-out: IC50 against the parasite): 10 µM"
